Measured values reported in patent US20260256792A1, “TREATMENT OF CHRONIC SPONTANEOUS URTICARIA BY ADMINISTERING (R)-2-[3-[4-AMINO-3-(2-FLUORO-4-PHENOXY-PHENYL)PYRAZOLO[3,4-D]PYRIMIDIN-1-YL]PIPERIDINE-1-CARBONYL]-4-METHYL-4-[4-(OXETAN-3-YL)PIPERAZIN-1-YL]PENT-2-ENENITRILE” (priority 2023, published 2026).

System: moderate-to-severe chronic spontaneous urticaria (CSU)
Experiment: Phase 2 CSU study: urticaria activity score over 7 days (UAS7)
Format: in vivo, human
Parameters: key to UAS7 Median / UAS7 Change from baseline Median / UAS7 change from baseline, Q1 / UAS7 change from baseline, Q3 / UAS7 change from baseline, Max / UAS7 Change from baseline LS Mean (SE): UAS7 points; daily UAS score ranges 0–6 points/day, over 7 days
Conditions: for UAS7 Change from baseline LS Mean (SE) / UAS7 Post-baseline Mean (SD) / UAS7 % Change difference for rilzabrutinib vs. placebo LS Mean (95% CI) / UAS7 % Change from baseline LS Mean (SE) / UAS7 Change difference for rilzabrutinib vs. placebo LS Mean (95% CI): ITT population, 400 mg TID; for Imputed non-responder n (%), UAS7 = 0 / Imputed non-responder n (%), UAS7 ≤6 / Non-responder n (%), UAS7 = 0 / Non-responder n (%), UAS7 ≤6 / OR for rilzabrutinib vs. placebo, UAS7 = 0 / OR for rilzabrutinib vs. placebo, UAS7 ≤6 / RRD (%) for rilzabrutinib vs. placebo, UAS7 = 0 / RRD (%) for rilzabrutinib vs. placebo, UAS7 ≤6 / Responder n (%), UAS7 = 0 / Responder n (%), UAS7 ≤6: ITT, 400 mg BID
From the text: The study comprises a 12 week, randomized, double-blind, placebo-controlled, multi-center, dose-ranging efficacy and safety phase, followed by a 40 week open label extension (OLE) phase (see FIG. 1). The study consists of three phases and an optional OLE phase. […] Clinically, CSU is characterized by the spontaneous and recurrent appearance of pruritic hives. The proposed primary endpoints were the UAS7 at Week 12 in EU and EU reference countries and the ISS7 in the US. Regardless of where a participant was from, all assessments were the same. The UAS7 score is a composite score containing both the HSS7 and the ISS7. This allowed a global assessment of the two key components of urticaria: hives and itch. […] The UAS is a validated PRO measure. […] The daily UAS scores range from 0 to 6 point/day. […] Patients were to complete the UAS using the e-diary. […] The following secondary endpoints were to be analyzed using the same approach as for the primary endpoint: • Change from baseline in UAS7 at Week 4 • Change from baseline in UAS7 at Week 12 (for US and US reference countries) • Change from baseline in ISS7 at Week 12 (except US and US reference countries) • Change from baseline in HSS7 at Week 12 The following responder secondary endpoints were to be analyzed using the Cochran-Mantel-Haenszel test adjusted by region: • Proportion of participants with UAS7<6 at Week 12 • Proportion of participants with UAS7=0 at Week 12 Participants who received selected prohibited medications and/or rescue medications were to be considered as non-responders for time points after the medication usage. For other participants, all available data including those collected during the off-treatment period were to be used to determine the responder/non-responder status. Missing data were to be considered as non-responders.

CC(C)(C=C(C#N)C(=O)N1CCC[C@@H](n2nc(-c3ccc(Oc4ccccc4)cc3F)c3c(N)ncnc32)C1)N1CCN(C2COC2)CC1 [rilzabrutinib, (R)-2-[3-[4-amino-3-(2-fluoro-4-phenoxy-phenyl)pyrazolo[3,4-d]pyrimidin-1-yl]piperidine-1-carbonyl]-4-methyl-4-[4-(oxetan-3-yl)piperazin-1-yl]pent-2-enenitrile]
UAS7 Change from baseline LS Mean (SE) (Week 5): −16.68
UAS7 Post-baseline Mean (SD) (Week 5): 12.72 (10.63)
UAS7 % Change difference for rilzabrutinib vs. placebo LS Mean (95% CI) (Week 6): −27.22%
UAS7 % Change from baseline LS Mean (SE) (Week 6): −54.12%
UAS7 Change difference for rilzabrutinib vs. placebo LS Mean (95% CI) (Week 6): −7.54
UAS7 Change from baseline LS Mean (SE) (Week 6): −16.68
UAS7 Post-baseline Mean (SD) (Week 6): 12.95 (11.42)
UAS7 % Change difference for rilzabrutinib vs. placebo LS Mean (95% CI) (Week 7): −25.60%
UAS7 % Change from baseline LS Mean (SE) (Week 7): −52.94%
UAS7 Change difference for rilzabrutinib vs. placebo LS Mean (95% CI) (Week 7): −7.30
UAS7 Change from baseline LS Mean (SE) (Week 7): −16.36
UAS7 Post-baseline Mean (SD) (Week 7): 13.31 (9.35)
UAS7 % Change difference for rilzabrutinib vs. placebo LS Mean (95% CI) (Week 8): −22.78%
UAS7 % Change from baseline LS Mean (SE) (Week 8): −54.62%
UAS7 Change difference for rilzabrutinib vs. placebo LS Mean (95% CI) (Week 8): −6.17
UAS7 Change from baseline LS Mean (SE) (Week 8): −16.52
UAS7 Post-baseline Mean (SD) (Week 8): 12.33 (10.15)
UAS7 % Change difference for rilzabrutinib vs. placebo LS Mean (95% CI) (Week 9): −26.48%
UAS7 % Change from baseline LS Mean (SE) (Week 9): −54.53%
UAS7 Change difference for rilzabrutinib vs. placebo LS Mean (95% CI) (Week 9): −7.09
UAS7 Change from baseline LS Mean (SE) (Week 9): −16.69
UAS7 Post-baseline Mean (SD) (Week 9): 11.76 (9.95)
UAS7 % Change difference for rilzabrutinib vs. placebo LS Mean (95% CI) (Week 10): −23.22%
UAS7 % Change from baseline LS Mean (SE) (Week 10): −56.75%
UAS7 Change difference for rilzabrutinib vs. placebo LS Mean (95% CI) (Week 10): −6.30
UAS7 Change from baseline LS Mean (SE) (Week 10): −17.20
UAS7 Post-baseline Mean (SD) (Week 10): 11.82 (10.15)
UAS7 % Change difference for rilzabrutinib vs. placebo LS Mean (95% CI) (Week 11): −25.03%
UAS7 % Change from baseline LS Mean (SE) (Week 11): −55.80%
UAS7 Change difference for rilzabrutinib vs. placebo LS Mean (95% CI) (Week 11): −6.74
UAS7 Change from baseline LS Mean (SE) (Week 11): −17.15
UAS7 Post-baseline Mean (SD) (Week 11): 12.17 (10.81)
Imputed non-responder n (%), UAS7 = 0 (Week 1): 1 (2.4) n (%)
Imputed non-responder n (%), UAS7 ≤6 (Week 1): 1 (2.4) n (%)
Non-responder n (%), UAS7 = 0 (Week 1): 38 (92.7) n (%)
Non-responder n (%), UAS7 ≤6 (Week 1): 34 (82.9) n (%)
OR for rilzabrutinib vs. placebo, UAS7 = 0 (Week 1): 3.132
OR for rilzabrutinib vs. placebo, UAS7 ≤6 (Week 1): 3.469
RRD (%) for rilzabrutinib vs. placebo, UAS7 = 0 (Week 1): 4.7 %
RRD (%) for rilzabrutinib vs. placebo, UAS7 ≤6 (Week 1): 10.3 %
Responder n (%), UAS7 = 0 (Week 1): 3 (7.3) n (%)
Responder n (%), UAS7 ≤6 (Week 1): 7 (17.1) n (%)
Imputed non-responder n (%), UAS7 = 0 (Week 2): 2 (4.9) n (%)
Imputed non-responder n (%), UAS7 ≤6 (Week 2): 2 (4.9) n (%)
Non-responder n (%), UAS7 = 0 (Week 2): 38 (92.7) n (%)
Non-responder n (%), UAS7 ≤6 (Week 2): 35 (85.4) n (%)
OR for rilzabrutinib vs. placebo, UAS7 = 0 (Week 2): 2.893
OR for rilzabrutinib vs. placebo, UAS7 ≤6 (Week 2): 2.834
RRD (%) for rilzabrutinib vs. placebo, UAS7 = 0 (Week 2): 4.2 %
RRD (%) for rilzabrutinib vs. placebo, UAS7 ≤6 (Week 2): 7.7 %
Responder n (%), UAS7 = 0 (Week 2): 3 (7.3) n (%)
Responder n (%), UAS7 ≤6 (Week 2): 6 (14.6) n (%)
Imputed non-responder n (%), UAS7 = 0 (Week 3): 1 (2.4) n (%)
Imputed non-responder n (%), UAS7 ≤6 (Week 3): 1 (2.4) n (%)
Non-responder n (%), UAS7 = 0 (Week 3): 37 (90.2) n (%)
Non-responder n (%), UAS7 ≤6 (Week 3): 31 (75.6) n (%)
OR for rilzabrutinib vs. placebo, UAS7 = 0 (Week 3): 3.857
OR for rilzabrutinib vs. placebo, UAS7 ≤6 (Week 3): 2.554
RRD (%) for rilzabrutinib vs. placebo, UAS7 = 0 (Week 3): 6.3 %
Responder n (%), UAS7 = 0 (Week 3): 4 (9.8) n (%)
Responder n (%), UAS7 ≤6 (Week 3): 10 (24.4) n (%)
Imputed non-responder n (%), UAS7 = 0 (Week 4): 4 (9.8) n (%)
Imputed non-responder n (%), UAS7 ≤6 (Week 4): 4 (9.8) n (%)
Non-responder n (%), UAS7 = 0 (Week 4): 38 (92.7) n (%)
Non-responder n (%), UAS7 ≤6 (Week 4): 28 (68.3) n (%)
OR for rilzabrutinib vs. placebo, UAS7 = 0 (Week 4): 1.278
